Source: US20080188560A1, “Cosmetic Compositions and Methods For Sensory Cooling” (priority 2004, published 2008)

Experiment: Cooling effect/cooling potential: heat of fusion by Differential Scanning Calorimeter
Assay type: physicochemical
Details: Pyris 1 DSC, sample cooled to −10° C., heated 10° C. per minute up to 50° C., area under the peak
Protocol: Four samples of the composition are prepared with 10%, 20% and 40% of the stearyl heptanoate in three samples and 40% Marrix (C12-C15 Alkyl Furmurate) in a fourth sample. Each sample is first weighed and subsequently cooled to −10° C. A Calorimeter (Pyris 1 Differential Scanning Calorimeter from Perkin Elmer) is used to apply heat to each sample at one minute increments, 10° C. per minute up to 50° C. The Calorimeter measures the heat of the sample at each increment. The resulting readings of heat are plotted against time for each sample. The Calorimeter measures the area under the peak on the plot to calculate the Heat of fusion (J/g) for each sample. The heat of fusion for the sample is the energy required to melt the sample from a solid form to a liquid form. The heat of fusion for the sample identifies the amount of energy the sample can absorb. Therefore, to correlate to the cooling on the skin, the higher the heat of fusion of a sample/material, the more heat the sample/material will absorb from the skin upon application to correspondingly create a cooling sensation on the skin.

CCCCCCCCCCCCCCCCCCOC(=O)CCCCCC [Active alone, Stearyl Heptanoate]
(ΔH) Heat of fusion: 174.3 J/g | (ΔH) Heat of fusion (listed as active alone): 174.3 J/g | (ΔH) Heat of fusion (listed as stearyl heptanoate): 74.5 J/g
